Data reported in patent US20250313860A1, “EXPRESSION OF EXOGENOUS PROTEINS IN DONOR PLATELETS TREATED WITH LIPID NANOPARTICLES” (THE UNIVERSITY OF BRITISH COLUMBIA, priority 2022, published 2025).

Columns and labels:
[1] = test system: platelets transfected with mRNA-LNP; test: Cycloheximide treatment of mRNA-LNP transfected platelets; assay type: cell-based, human
Source text: Platelets were transfected with mRNA encoding nanoluciferase (NanoLuc) encapsulated in LNP formulation using ALC0315 and DOPC immediately preceding treatment with cycloheximide, followed by enzymatic assays of nanoluciferase activity, and activation by flow cytometry using PE-conjugated mouse anti-human CD62P labeling, as described in the Materials and Methods.

human platelets = test: Platelet responsiveness to agonists ADP and thrombin (CD62P flow cytometry); assay type: cell-based; details: transfected and control untreated platelets, FIG. 3A
Experimental: (§1) Platelets untreated or treated with CL4H6 POPC LNP were activated after 2 h with 0.1 U mL-1 thrombin from human plasma (MilliporeSigma Canada Ltd, Oakville, ON) or 10 μM Chrono-Par® ADP reagent (Chrono-Log, Havertown, PA) in Tyrode's-HEPES buffer pH 7.4 (134 mM NaCl, 2.9 mM KCl, 0.34 mM NaH2PO4, 10 mM HEPES, 5 mM D-glucose). After 4 h LNP treatment, platelets were collected for flow cytometry and the remaining sample was centrifuged at 250×g for 10 min, with the pellet and supernatant fractions collected for luciferase assay.
Platelet responsiveness to agonists ADP or thrombin was measured by flow cytometry staining using PE-conjugated mouse anti-human CD62P labeling, as described in the Materials and Methods.

[2] = test system: platelets transfected with mRNA-LNP; test: Intracellular and extracellular NanoLuc after agonist activation of transfected platelets; assay type: cell-based, human; details: after agonist stimulation of transfected platelets; for intracellular NanoLuc level (cell pellet): FIG. 4D; for extracellular NanoLuc level (supernatant): FIG. 4E
Experimental: as §1
Platelets were transfected with mRNA-LNP encoding NanoLuc, followed by activation with agonists ADP or thrombin. Intracellular and extracellular protein was separated by centrifugation, and enzymatic activity assays were used to measure exogenous protein levels in both fractions as described in the Materials and Methods.

Row | Compound | exogenous protein synthesis in transfected platelets ([1]; LNP with ALC0315 and DOPC, FIG. 5A) | mRNA-LNP uptake in transfected platelets ([1]; presence or absence of cycloheximide, FIG. 5B) | increase of CD62P levels by agonist (human platelets) | intracellular NanoLuc level (cell pellet) [2] | extracellular NanoLuc level (supernatant) [2]
1 | C[C@@H]1C[C@@H]([C@H](O)CC2CC(=O)NC(=O)C2)C(=O)[C@@H](C)C1 [cycloheximide] | inhibited | no statistically significant effect |  |  | 
2 | thrombin |  |  | substantially | decreased | decreased
3 | Nc1ncnc2c1ncn2[C@@H]1O[C@H](COP(=O)(O)OP(=O)(O)O)[C@@H](O)[C@H]1O [ADP] |  |  | mildly | unchanged | unchanged
